We go through 4 molecules from patent US20250163119A1, “COMPOUNDS FOR THE TREATMENT OF DIABETES OR OBESITY” (Eli Lilly and Company, priority 2023, published 2025).

*1 amine or outer side, *2 acyl side, *3 side chain or, on linkers, in order; H or OH if unused. Where a SMILES comes first, the peptide text is derived from it. Side-chain parts run from the residue outwards. [ ]: non-standard residue; d: D form. The star is where a group is joined. C20 diacid = O=C(O)CCCCCCCCCCCCCCCCCCC(=O)*; γGlu = O=C(O)[C@H](CCC(=O)[*:2])N[*:1]; NMeI = CC[C@H](C)[C@H](NC)C(=O)O; αMeL = CC(C)C[C@](C)(N)C(=O)O; AEEA = NCCOCCOCC(=O)O; Aib = CC(C)(N)C(=O)O

This test has as its target T1, human CRHR2 (Homo sapiens, UniProt Q13324).
T1 construct: expressed in transfected cells
T1 sequence (Q13324 1-438 isoform Q13324-2): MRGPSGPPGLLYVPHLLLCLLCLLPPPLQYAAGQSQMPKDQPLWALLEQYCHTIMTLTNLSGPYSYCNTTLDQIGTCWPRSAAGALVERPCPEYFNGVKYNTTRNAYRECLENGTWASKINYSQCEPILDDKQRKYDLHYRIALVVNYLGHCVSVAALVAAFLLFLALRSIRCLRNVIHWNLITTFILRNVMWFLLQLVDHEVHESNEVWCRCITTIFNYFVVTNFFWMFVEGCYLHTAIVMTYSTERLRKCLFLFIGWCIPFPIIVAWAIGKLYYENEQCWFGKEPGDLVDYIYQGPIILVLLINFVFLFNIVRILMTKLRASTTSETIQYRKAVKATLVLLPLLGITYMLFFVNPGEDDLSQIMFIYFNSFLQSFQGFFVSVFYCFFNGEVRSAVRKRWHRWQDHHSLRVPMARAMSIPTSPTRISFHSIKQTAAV
The test is described as follows: Human CRHR2 cAMP assay (HTRF) in HEK293 cells stably expressing human CRHR2. The format is cell-based. The settings on record: HEK293 cells overexpressing human CRHR2; relative EC50, maximum 10 nM human UCN2; mean ± SE; read-out: hCRHR2 cAMP EC50 (pM, ± SE). In outline:
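HTRF cAMP read-out (665/620 nm ratio, 60 min lysis/detection at RT), converted to pmol/well via per-experiment standard curve. Stable HEK293 lines; buffer MEM, 0.1% casein, 5 mM HEPES pH 7.4, 0.25 mM IBMX. CRHR1: 25,000 cells, 1 h, 37° C. CRHR2: 5,000 cells, 30 min, RT.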
A general note: Changes in cAMP serve as a functional read-out for many G protein-coupled receptors.

A word on the EC50: it is the concentration needed to bring the measured effect to its halfway point. For the molecule `CC[C@H](C)[C@H](NC(C)=O)C(=O)N[C@H](C(=O)N[C@H](C(=O)N[C@@H](CO)C(=O)N[C@@](C)(CC(C)C)C(=O)N[C@@H](CC(=O)O)C(=O)N[C@@H](C(=O)N1CCC[C@H]1C(=O)N[C@H](C(=O)NC(C)(C)C(=O)N[C@@](C)(CC(C)C)C(=O)N[C@@H](CC(C)C)C(=O)N[C@@H](CCC(N)=O)C(=O)N[C@H](C(=O)N[C@@H](CCCCN)C(=O)N[C@@H](CC(C)C)C(=O)N[C@@H](CCC(=O)O)C(=O)N[C@@H](CCC(N)=O)C(=O)N[C@@H](CCC(=O)O)C(=O)N[C@@H](CCCNC(=N)N)C(=O)N[C@@H](C)C(=O)N[C@@H](CCC(=O)O)C(=O)N[C@@H](CCCCN)C(=O)N[C@@H](C)C(=O)N[C@@H](CCCNC(=N)N)C(=O)N[C@@H](CCC(N)=O)C(=O)N[C@@H](CCC(N)=O)C(=O)N[C@@H](C)C(=O)N[C@@H](CCCCNC(=O)COCCOCCNC(=O)COCCOCCNC(=O)CC[C@H](NC(=O)CCCCCCCCCCCCCCCCCCC(=O)O)C(=O)O)C(=O)N[C@@H](CCC(=O)O)C(=O)N[C@@H](CC(N)=O)C(=O)N[C@H](C(=O)N[C@@H](CCC(=O)O)C(=O)N[C@H](C(=O)N[C@@H](CC(C)C)C(=O)N[C@@H](C)C(=O)N[C@@H](CCC(N)=O)C(=O)N[C@H](C(N)=O)C(C)C)[C@@H](C)CC)[C@@H](C)O)[C@@H](C)CC)[C@@H](C)O)C(C)C)[C@@H](C)O)C(C)C` [SEQ ID NO: 41, Ac-IVTS αMeL D (D-Val) PT Aib αMeL LQIKLEQERAEKARQQAK((2-[2-(2-Amino-ethoxy)-ethoxy]-acetyl)2-γE-CO-(CH2)18-CO2H)ENTEILAQV-NH2] (Ac-IVTS[αMeL]D[dV]PT[Aib][αMeL]LQIKLEQERAEKARQQAK([AEEA-AEEA-γGlu-C20 diacid])ENTEILAQV-NH2), the EC50 came to 7 ± 0.9 pM.

`CC[C@H](C)[C@H](NC)C(=O)N[C@H](C(=O)N[C@H](C(=O)N[C@@H](CO)C(=O)N[C@@H](CC(C)C)C(=O)N[C@@H](CC(=O)O)C(=O)N[C@H](C(=O)N1CCC[C@H]1C(=O)N[C@H](C(=O)NCC(=O)N[C@@](C)(CC(C)C)C(=O)N[C@@H](CC(C)C)C(=O)N[C@@H](CCC(N)=O)C(=O)N[C@@H](CCCCN)C(=O)N[C@@H](CC(C)C)C(=O)N[C@H](C(=O)N[C@@H](CCC(=O)O)C(=O)N[C@@H](CCC(N)=O)C(=O)N[C@@H](CCC(=O)O)C(=O)N[C@@H](CCCCN)C(=O)N[C@@H](CCC(N)=O)C(=O)N[C@@H](CCC(=O)O)C(=O)N[C@@H](CCCCN)C(=O)N[C@@H](CCC(=O)O)C(=O)N[C@@H](CCCCN)C(=O)N[C@@H](CCC(N)=O)C(=O)N[C@@H](CCC(N)=O)C(=O)N[C@@H](C)C(=O)N[C@@H](CCCCNC(=O)COCCOCCNC(=O)COCCOCCNC(=O)CC[C@H](NC(=O)CCCCCCCCCCCCCCCCCCC(=O)O)C(=O)O)C(=O)N[C@@H](CCC(=O)O)C(=O)N[C@@H](CC(N)=O)C(=O)N[C@H](C(=O)N[C@@H](CCC(=O)O)C(=O)N[C@H](C(=O)N[C@@H](CC(C)C)C(=O)N[C@@H](C)C(=O)N[C@@H](CCC(N)=O)C(=O)N[C@H](C(N)=O)C(C)C)[C@@H](C)CC)[C@@H](C)O)[C@@H](C)CC)[C@@H](C)CC)C(C)C)[C@@H](C)O)C(C)C` [SEQ ID NO: 49, (NMeI) VTSLDVPIG αMeL LQKLIEQEKQEKEKQQAK((2-[2-(2-Amino-ethoxy)-ethoxy]-acetyl)2-γE-CO-(CH2)18-CO2H)ENTEILAQV-NH2] (H-[NMeI]VTSLDVPIG[αMeL]LQKLIEQEKQEKEKQQAK([AEEA-AEEA-γGlu-C20 diacid])ENTEILAQV-NH2): the EC50 stood at 6.6 ± 0.9 pM. For `CC[C@H](C)[C@H](NC)C(=O)N[C@H](C(=O)N[C@H](C(=O)N[C@@H](CO)C(=O)N[C@@H](CC(C)C)C(=O)N[C@@H](CC(=O)O)C(=O)N[C@H](C(=O)N1CCC[C@H]1C(=O)N[C@H](C(=O)NCC(=O)N[C@@](C)(CC(C)C)C(=O)N[C@@H](CC(C)C)C(=O)N[C@@H](CCC(N)=O)C(=O)N[C@@H](CCCCN)C(=O)N[C@@H](CC(C)C)C(=O)N[C@@H](CC(C)C)C(=O)N[C@@H](CCC(=O)O)C(=O)N[C@@H](CCC(N)=O)C(=O)N[C@@H](CCC(=O)O)C(=O)N[C@@H](CCCNC(=N)N)C(=O)N[C@@H](C)C(=O)N[C@@H](CCC(=O)O)C(=O)N[C@@H](CCCCN)C(=O)N[C@@H](C)C(=O)N[C@@H](CCCNC(=N)N)C(=O)N[C@@H](CCC(N)=O)C(=O)N[C@@H](CCC(N)=O)C(=O)N[C@@H](C)C(=O)N[C@@H](CCCCNC(=O)COCCOCCNC(=O)COCCOCCNC(=O)CC[C@H](NC(=O)CCCCCCCCCCCCCCCCCCC(=O)O)C(=O)O)C(=O)N[C@@H](CCC(=O)O)C(=O)N[C@@H](C)C(=O)N[C@@H](C)C(=O)N[C@@H](CCC(=O)O)C(=O)N[C@H](C(=O)N[C@@H](CC(C)C)C(=O)N[C@@H](C)C(=O)N[C@@H](CCC(N)=O)C(=O)N[C@H](C(N)=O)C(C)C)[C@@H](C)CC)[C@@H](C)CC)C(C)C)[C@@H](C)O)C(C)C` [SEQ ID NO: 50, (NMeI) VTSLDVPIG αMeL LQKLLEQERAEKARQQAK((2-[2-(2-Amino-ethoxy)-ethoxy]-acetyl)2-γE-CO-(CH2)18-CO2H)EAAEILAQV-NH2] (H-[NMeI]VTSLDVPIG[αMeL]LQKLLEQERAEKARQQAK([AEEA-AEEA-γGlu-C20 diacid])EAAEILAQV-NH2) the value was 22.4 ± 3.6 pM; for `CC[C@H](C)[C@H](NC)C(=O)N[C@H](C(=O)N[C@@H](CC(C)C)C(=O)N[C@@H](CO)C(=O)N[C@@H](CC(C)C)C(=O)N[C@@H](CC(=O)O)C(=O)N[C@H](C(=O)N1CCC[C@H]1C(=O)N[C@H](C(=O)NCC(=O)N[C@@H](CC(C)C)C(=O)N[C@@H](CC(C)C)C(=O)N[C@@H](CCC(N)=O)C(=O)N[C@H](C(=O)N[C@@H](CC(C)C)C(=O)N[C@@H](CC(C)C)C(=O)N[C@@H](CCC(=O)O)C(=O)N[C@@H](CCC(N)=O)C(=O)N[C@@H](CCC(=O)O)C(=O)N[C@@H](CCCCN)C(=O)N[C@@H](CCC(N)=O)C(=O)N[C@@H](CCC(=O)O)C(=O)N[C@@H](CCCCN)C(=O)N[C@@H](CCC(=O)O)C(=O)N[C@@H](CCCCN)C(=O)N[C@@H](CCC(N)=O)C(=O)N[C@@H](CCC(N)=O)C(=O)N[C@@H](C)C(=O)N[C@@H](CCCCNC(=O)COCCOCCNC(=O)COCCOCCNC(=O)CC[C@H](NC(=O)CC[C@H](NC(=O)CCCCCCCCCCCCCCCCCCC(=O)O)C(=O)O)C(=O)O)C(=O)N[C@H](C(=O)N[C@@H](CC(N)=O)C(=O)N[C@@H](C)C(=O)N[C@@H](CCC(N)=O)C(=O)N[C@H](C(=O)N[C@@H](CC(C)C)C(=O)N[C@@H](C)C(=O)N[C@@H](CCC(N)=O)C(=O)N[C@H](C(N)=O)C(C)C)[C@@H](C)CC)[C@@H](C)O)[C@@H](C)CC)[C@@H](C)CC)C(C)C)C(C)C` [SEQ ID NO: 54] (H-[NMeI]VLSLDVPIGLLQILLEQEKQEKEKQQAK([AEEA-AEEA-γGlu-γGlu-C20 diacid])TNAQILAQV-NH2), 29.8 ± 2.5 pM.
